Legend:
468 kinases = assay: KINOMEscan scanMAX kinase selectivity panel; assay type: binding, human
[1] = system: more than 200 full-length kinases in Hela cell lysate; assay: Kinobead pulldown assay in cellular lysate; assay type: binding, human; details: dose–response 30 μM to 1 nM
HeLa cells = assay: Quantitative phosphoproteomic analysis; assay type: cell-based, human; details: 30 min, 100 μM (LIMKi3, TH470) or 1 mM (TH257) as printed; for Significantly regulated phosphosites: p<0.01

| Structure (SMILES) | Interaction with other kinases in KINOMEscan panel (468 kinases; screened at 1 μM, 468 kinases) | Hits identified in kinobead assay [1] | Additional off-targets identified besides LIMK1/2 (468 kinases; selectivity profiling) | Downregulated phosphosites (HeLa cells) [sites] | Upregulated phosphosites (HeLa cells) [sites] | Significantly regulated phosphosites (HeLa cells) [sites] |
| --- | --- | --- | --- | --- | --- | --- |
| O=C(NCc1ccccc1)c1ccc(S(=O)(=O)NCc2ccccc2)cc1 [Compound 26, N-benzyl-4-(benzylsulfamoyl)benzamide] | no interacting kinase | No other hits except LIMK1 and LIMK2 were identified | – | – | – | – |
| O=C(c1ccc(S(=O)(=O)Nc2ccccc2)cc1)N(Cc1ccccc1)Cc1cn(Cc2ccccc2)nn1 [Compound 33, N-benzyl-N-[(1-benzyl-1H-1,2,3-triazol-4-yl)methyl]-4-(phenylsulfamoyl)benzamide] | – | – | four | – | – | – |
| CC(C)C(=O)Nc1ncc(C(=O)NCCN(Cc2ccccc2)C(=O)c2ccc(S(=O)(=O)Nc3ccccc3)cc2)s1 [Compound 48, N-benzyl-N-(2-{[2-(2-methylpropanamido)-1,3-thiazol-5-yl]formamido}ethyl)-4-(phenylsulfamoyl)benzamide] | – | No other hits except LIMK1 and LIMK2 were identified | – | 193 | 146 | 339 |
| CC(C)C(=O)Nc1ncc(-c2cc(C(F)F)nn2-c2c(Cl)cccc2Cl)s1 [Compound 1, reference compound] | – | No other hits except LIMK1 and LIMK2 were identified | – | 173 | 189 | 362 |

Reference: paper PMC9675044 (Journal of medicinal chemistry, 2022)
